We go through 20 compounds from patent publication US20240327381A1, “Compounds and Compositions for Selective Degradation of Engineered Proteins” (Celgene Corporation, priority 2023, published 2024).

Experiment [1] addresses T1, IKZF1 ZNF2_ZNF3 Q1F degron-tagged CD19 CAR (Homo sapiens, UniProt Q13422, Q146F).
T1 construct: ZNF2_ZNF3 Q1F degron (GERPFFCNQCGASFTQKGNLLRHIKLHSGEKPFKCHLCNYACRRRDALTGHLRTHS); fused on or other part: anti-CD19 scFv, CD28 transmembrane domain, 4-1BB costimulatory domain, CD3 zeta signaling domain (the CAR that carries the degron), and Nluc
Briefly: Degradation of Q1F degron-tagged CD19 CAR in Jurkat cells (flow cytometry of CAR levels). The experiment is classed as cell-based. As to conditions: for DC50: Jurkat cells expressing CD19 CAR tagged with IKZF1 ZNF2_ZNF3 Q1F, 18 hours at 37° C., CAR levels normalized to untreated cells, read-out: Q1F Jurkat IC50; for Dmax: Ymax is the % protein degraded, Jurkat cells expressing Q1F degron-tagged CD19 CAR, 18 hours, read-out: Q1F Jurkat-YMax. From the text:
Q1F degron-targeting compounds were screened in Jurkat cells engineered to express a IKZF1 ZNF2_ZNF3 Q1F. The cell line was generated with lentiviral vectors containing CD19 CARs tagged with IKZF1 ZNF2_ZNF3 QIF Nluc, which were transduced into Jurkat cells. The CD19 CAR comprised an anti-CD19 scFv, a CD28 transmembrane domain, a 4-1BB costimulatory domain, a CD3ζ signaling domain, and a ZNF2_ZNF3 Q1F degron (GERPFFCNQCGASFTQKGNLLRHIKLHSGEKPFKCHLCNYACRRRDALTGHLRTHS; SEQ ID NO: 1; Q1F substitution underlined). Transduced cells were treated with a titration of each small molecule or no drug and then incubated at 37° C. for 18 hours. Cells were washed and stained with appropriate staining reagent to measure CAR levels. The cells were incubated at 4° C. in the staining reagents for 20 mins and then washed 3 times before being read on the flow cytometer. CAR levels were normalized to cells that had not been treated with drug. EC50 and Ymin values were calculated using the resulting titration curve. This identified small molecules that potently degraded the Q1F degron-tagged CARs (Table 1).
(§1) To determine the EC50 value of a compound for the degradation of a given substrate (concentration of compound that achieves half the maximum degradation observed), a four-parameter logistic model (sigmoidal dose-response model) (FIT=(A+{(B−A)/1+[(C/x)D]})) where C is the inflection point (EC50), D is the […], and A and B are the low and high limits of the fit, respectively) was used. All substrate degradation curves were processed and evaluated using ActivityBase (IDBS), a data analysis software package. Ymax is the % protein degraded (Ymin=100−Ymax and is minimum percent protein remaining).

Another experiment addresses T2, Helios (Homo sapiens, UniProt Q9UKS7).
T2 construct: endogenous in cells; host or cells: Jurkat cells, CRISPR/Cas9 knock-in of HiBit at the IKZF2 locus
Put plainly: Helios degradation in Jurkat/Helios/HiBit cells (Nano-Glo luminescence). Type of experiment: cell-based. As to conditions: 18 hr, read-out: Helios Jurkat Hibit IC50. On the procedure: For Helios, a stable Jurkat cell line was engineered using CRISPR/Cas9 to insert an in-frame HiBit tag into the carboxy-terminal reading frame of the IKZF2 gene. The sequence of human Helios is shown below:
Test compounds were transferred to 1536 well plates using an acoustic dispenser, and Jurkat/Helios/HiBit cells in DMEM/10% FCS were plated at 10,000 cells/well in a final volume of 5 μL. Cells were incubated at 37 C, 95% RH for 18 hr. Luciferase activity was measured by adding 2 μL/well of Nano-Glo reagent (Promega), incubating at RT for 30 min, and reading luminescence on a microtiter plate reader.
as §1

T2 sequence (Q9UKS7 whole entry): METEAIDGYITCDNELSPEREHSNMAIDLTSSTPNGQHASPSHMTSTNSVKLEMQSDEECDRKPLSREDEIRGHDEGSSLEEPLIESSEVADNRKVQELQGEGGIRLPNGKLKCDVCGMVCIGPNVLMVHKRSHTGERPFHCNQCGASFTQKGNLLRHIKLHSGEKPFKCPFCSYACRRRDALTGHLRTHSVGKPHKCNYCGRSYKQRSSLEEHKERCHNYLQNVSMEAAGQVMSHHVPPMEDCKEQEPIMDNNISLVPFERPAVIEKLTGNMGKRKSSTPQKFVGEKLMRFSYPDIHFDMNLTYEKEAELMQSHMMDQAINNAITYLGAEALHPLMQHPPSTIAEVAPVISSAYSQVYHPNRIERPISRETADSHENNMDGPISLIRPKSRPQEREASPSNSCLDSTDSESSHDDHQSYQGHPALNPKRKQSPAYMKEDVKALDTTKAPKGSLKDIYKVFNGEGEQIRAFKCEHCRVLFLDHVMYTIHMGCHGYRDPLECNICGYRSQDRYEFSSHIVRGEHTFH
T2 sequence (Q96SW2 whole entry, further chain): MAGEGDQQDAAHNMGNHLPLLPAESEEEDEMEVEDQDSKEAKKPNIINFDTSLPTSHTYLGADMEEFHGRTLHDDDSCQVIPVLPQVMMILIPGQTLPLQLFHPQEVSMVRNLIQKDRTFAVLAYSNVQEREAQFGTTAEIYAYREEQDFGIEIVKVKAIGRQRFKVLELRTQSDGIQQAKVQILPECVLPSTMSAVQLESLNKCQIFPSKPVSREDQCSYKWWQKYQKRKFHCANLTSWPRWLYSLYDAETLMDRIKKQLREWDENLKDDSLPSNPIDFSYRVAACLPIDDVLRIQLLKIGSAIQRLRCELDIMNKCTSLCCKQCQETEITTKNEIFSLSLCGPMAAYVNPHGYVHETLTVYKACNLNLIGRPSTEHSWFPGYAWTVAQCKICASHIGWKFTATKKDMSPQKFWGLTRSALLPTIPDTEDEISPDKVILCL
T2 sequence (Q16531 whole entry partner): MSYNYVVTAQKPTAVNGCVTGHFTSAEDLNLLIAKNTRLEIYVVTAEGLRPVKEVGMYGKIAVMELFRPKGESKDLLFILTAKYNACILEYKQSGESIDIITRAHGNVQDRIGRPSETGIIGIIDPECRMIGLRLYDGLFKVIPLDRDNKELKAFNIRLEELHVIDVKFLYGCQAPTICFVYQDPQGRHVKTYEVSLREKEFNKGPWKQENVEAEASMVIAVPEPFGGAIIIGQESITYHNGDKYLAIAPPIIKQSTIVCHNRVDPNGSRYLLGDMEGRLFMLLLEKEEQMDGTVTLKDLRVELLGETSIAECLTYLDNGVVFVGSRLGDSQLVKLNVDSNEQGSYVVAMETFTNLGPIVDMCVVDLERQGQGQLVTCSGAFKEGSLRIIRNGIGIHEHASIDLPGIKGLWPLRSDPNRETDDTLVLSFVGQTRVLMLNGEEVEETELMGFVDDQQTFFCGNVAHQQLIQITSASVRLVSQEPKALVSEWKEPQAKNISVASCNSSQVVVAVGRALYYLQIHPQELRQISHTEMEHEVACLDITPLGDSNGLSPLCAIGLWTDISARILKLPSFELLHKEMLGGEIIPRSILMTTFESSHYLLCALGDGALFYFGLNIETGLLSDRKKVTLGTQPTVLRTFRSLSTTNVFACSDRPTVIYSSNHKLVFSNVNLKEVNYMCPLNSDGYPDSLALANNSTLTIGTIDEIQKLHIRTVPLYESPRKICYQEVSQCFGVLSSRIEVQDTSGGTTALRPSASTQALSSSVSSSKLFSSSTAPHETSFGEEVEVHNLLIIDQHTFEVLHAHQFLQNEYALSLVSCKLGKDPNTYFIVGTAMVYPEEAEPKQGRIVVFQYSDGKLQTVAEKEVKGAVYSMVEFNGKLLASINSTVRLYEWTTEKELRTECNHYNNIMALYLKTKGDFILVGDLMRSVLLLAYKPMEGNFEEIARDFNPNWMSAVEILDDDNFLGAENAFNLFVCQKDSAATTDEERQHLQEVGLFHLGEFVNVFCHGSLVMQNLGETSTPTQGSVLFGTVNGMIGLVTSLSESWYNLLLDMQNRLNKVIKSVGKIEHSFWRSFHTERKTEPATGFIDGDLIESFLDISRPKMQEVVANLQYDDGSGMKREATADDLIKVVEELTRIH
T1 sequence (Q13422 whole entry Q146F, the tested form may be a part): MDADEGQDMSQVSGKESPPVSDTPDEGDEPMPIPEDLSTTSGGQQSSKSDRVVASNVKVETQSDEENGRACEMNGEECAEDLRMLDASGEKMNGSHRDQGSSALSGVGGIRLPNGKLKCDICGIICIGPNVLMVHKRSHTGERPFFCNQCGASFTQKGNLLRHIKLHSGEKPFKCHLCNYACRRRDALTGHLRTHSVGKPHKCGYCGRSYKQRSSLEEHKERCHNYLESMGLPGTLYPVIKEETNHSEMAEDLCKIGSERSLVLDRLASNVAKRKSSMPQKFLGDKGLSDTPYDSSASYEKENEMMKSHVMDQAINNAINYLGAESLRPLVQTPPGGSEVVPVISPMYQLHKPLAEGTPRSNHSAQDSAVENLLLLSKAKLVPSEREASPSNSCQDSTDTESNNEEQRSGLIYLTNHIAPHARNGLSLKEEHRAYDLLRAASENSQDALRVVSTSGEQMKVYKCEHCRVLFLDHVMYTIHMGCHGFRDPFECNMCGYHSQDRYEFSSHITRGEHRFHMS

Consider `O=C1CCC(N2Cc3cc(C4CCN(Cc5ccc6cn[nH]c6c5)CC4)c(F)cc3C2=O)C(=O)N1` (stereo not drawn) [Compound 87, 3-(5-(1-((1H-indazol-6-yl)methyl)piperidin-4-yl)-6-fluoro-1-oxoisoindolin-2-yl)piperidine-2,6-dione], for which, in experiment [1], the DC50 came out at 4.06 nM and the Dmax is 94.2%. Moreover, the DC50 at Helios was at least 10000 nM.

Consider `O=C1CCC(N2Cc3cc(C4CCN(CC5CCCCC5)CC4)c(F)cc3C2=O)C(=O)N1` (stereo not drawn) [Compound 82, 3-(5-(1-(cyclohexylmethyl)piperidin-4-yl)-6-fluoro-1-oxoisoindolin-2-yl)piperidine-2,6-dione], for which, in experiment [1], the DC50 was determined as 1.72 nM and the Dmax was found to be 88.2%. In addition, the DC50 at Helios was at least 10000 nM.

With `O=C1CCC(N2Cc3c(cc(F)c(C4CCN(CCO)CC4)c3F)C2=O)C(=O)N1` (stereo not drawn) [Compound 123, 3-(4,6-difluoro-5-(1-(2-hydroxyethyl)piperidin-4-yl)-1-oxoisoindolin-2-yl)piperidine-2,6-dione], in experiment [1], the DC50 was 21.3 nM and the Dmax amounted to 74.5%. Moreover, the DC50 on Helios was at least 10000 nM.

Regarding `O=C1CCC(N2Cc3c(cc(F)c(C4CCN(Cc5cnc6ccccc6n5)CC4)c3F)C2=O)C(=O)N1` (stereo not drawn) [Compound 116, 3-(4,6-difluoro-1-oxo-5-(1-(quinoxalin-2-ylmethyl)piperidin-4-yl)isoindolin-2-yl)piperidine-2,6-dione], in experiment [1], the DC50 stood at 3.19 nM and the Dmax was 85.5%. Also, on Helios, the DC50 was at least 10000 nM.

For the compound `Cc1cc(Br)cnc1CN1CCC(O)(c2c(F)cc3c(c2F)CN(C2CCC(=O)NC2=O)C3=O)CC1` (stereo not drawn) [Compound 13, 3-(5-(1-((5-bromo-3-methylpyridin-2-yl)methyl)-4-hydroxypiperidin-4-yl)-4,6-difluoro-1-oxoisoindolin-2-yl)piperidine-2,6-dione], in experiment [1], the DC50 was 86 nM and the Dmax amounted to 62.4%. For the same compound, on Helios, the DC50 was at least 10000 nM.

Regarding `O=C1CCC(N2Cc3c(cc(F)c(C4CCN(Cc5ccc(-n6ccnc6)cc5)CC4)c3F)C2=O)C(=O)N1` (stereo not drawn) [Compound 8, 3-(5-(1-(4-(1H-imidazol-1-yl)benzyl)piperidin-4-yl)-4,6-difluoro-1-oxoisoindolin-2-yl)piperidine-2,6-dione], in experiment [1], the DC50 turned out to be 4.97 nM and the Dmax was determined as 91.7%. Besides, the DC50 on Helios is at least 10000 nM.

For the compound `Cc1ccc(CN2CCC(c3c(F)cc4c(c3F)CN(C3CCC(=O)NC3=O)C4=O)CC2)cc1` (stereo not drawn) [Compound 45, 3-(4,6-difluoro-5-(1-(4-methylbenzyl)piperidin-4-yl)-1-oxoisoindolin-2-yl)piperidine-2,6-dione], in experiment [1], the DC50 worked out at 0.343 nM and the Dmax was found to be 90.6%. Besides, the DC50 on Helios is at least 10000 nM.

`COc1cccc(CN2CCC(O)(c3c(F)cc4c(c3F)CN(C3CCC(=O)NC3=O)C4=O)CC2)n1` (stereo not drawn) [Compound 38, 3-(4,6-difluoro-5-(4-hydroxy-1-((6-methoxypyridin-2-yl)methyl)piperidin-4-yl)-1-oxoisoindolin-2-yl)piperidine-2,6-dione]: the values for the DC50 (in experiment [1]; at Helios) were 24.5 nM and at least 10000 nM, respectively. In addition, the Dmax in experiment [1] stood at 70.7%.

Turning to `COCCN1CCC(c2c(F)cc3c(c2F)CN(C2CCC(=O)NC2=O)C3=O)CC1` (stereo not drawn) [Compound 124, 3-(4,6-difluoro-5-(1-(2-methoxyethyl)piperidin-4-yl)-1-oxoisoindolin-2-yl)piperidine-2,6-dione], in experiment [1], the DC50 is 11 nM and the Dmax was 76.7%. Moreover, the DC50 at Helios was at least 10000 nM.

For `O=C1CCC(N2Cc3c(cc(F)c(C4CCN(Cc5ccc6c(c5)OC(F)(F)O6)CC4)c3F)C2=O)C(=O)N1` (stereo not drawn) [Compound 59, 3-(5-(1-((2,2-difluorobenzo[d][1,3]dioxol-5-yl)methyl)piperidin-4-yl)-4,6-difluoro-1-oxoisoindolin-2-yl)piperidine-2,6-dione], the DC50 was 0.01 nM in experiment [1] and at least 10000 nM on Helios. For the same compound, the Dmax in experiment [1] was determined as 92.2%.

For the compound `Cc1cc(CN2CCC(c3c(F)cc4c(c3F)CN(C3CCC(=O)NC3=O)C4=O)CC2)nn1C` (stereo not drawn) [Compound 103, 3-(5-(1-((1,5-dimethyl-1H-pyrazol-3-yl)methyl)piperidin-4-yl)-4,6-difluoro-1-oxoisoindolin-2-yl)piperidine-2,6-dione], in experiment [1], the DC50 is 1.96 nM and the Dmax was found to be 84.7%. For the same compound, the DC50 on Helios is at least 10000 nM.

`O=C1CCC(N2Cc3c(cc(F)c(C(=O)Nc4nccn4C4CCC4)c3F)C2=O)C(=O)N1` (stereo not drawn) [Compound 74, N-(1-cyclobutyl-1H-imidazol-2-yl)-2-(2,6-dioxopiperidin-3-yl)-4,6-difluoro-1-oxoisoindoline-5-carboxamide]: the figures for the DC50 (in experiment [1]; at Helios) were 108 nM and at least 10000 nM, respectively. The Dmax in experiment [1] was 74.9%.

As for `Cn1cnc2ccc(CN3CCC(c4c(F)cc5c(c4F)CN(C4CCC(=O)NC4=O)C5=O)CC3)cc21` (stereo not drawn) [Compound 106, 3-(4,6-difluoro-5-(1-((1-methyl-1H-benzo[d]imidazol-6-yl)methyl)piperidin-4-yl)-1-oxoisoindolin-2-yl)piperidine-2,6-dione], in experiment [1], the DC50 was 0.698 nM and the Dmax came to 91.8%. In addition, the DC50 at Helios was at least 10000 nM.

As for `CNC(=O)CN1CCC(c2c(F)cc3c(c2F)CN(C2CCC(=O)NC2=O)C3=O)CC1` (stereo not drawn) [Compound 122, 2-(4-(2-(2,6-dioxopiperidin-3-yl)-4,6-difluoro-1-oxoisoindolin-5-yl)piperidin-1-yl)-N-methylacetamide], the DC50 was 65.1 nM in experiment [1] and at least 10000 nM on Helios. In addition, in experiment [1], the Dmax is 74.2%.

Turning to `CN(CCN1CCC(c2c(F)cc3c(c2F)CN(C2CCC(=O)NC2=O)C3=O)CC1)Cc1ccccc1` (stereo not drawn) [Compound 65, 3-(5-(1-(2-(benzyl(methyl)amino)ethyl)piperidin-4-yl)-4,6-difluoro-1-oxoisoindolin-2-yl)piperidine-2,6-dione], in experiment [1], the DC50 was 1.09 nM and the Dmax is 85.5%. Further, the DC50 at Helios is at least 10000 nM.

In the case of `O=C1CCC(N2Cc3cc(C4CCN(Cc5nc6ccccc6s5)CC4)c(F)cc3C2=O)C(=O)N1` (stereo not drawn) [Compound 83, 3-(5-(1-(benzo[d]thiazol-2-ylmethyl)piperidin-4-yl)-6-fluoro-1-oxoisoindolin-2-yl)piperidine-2,6-dione], the DC50 in experiment [1] is 19.9 nM; on Helios, at least 10000 nM. The Dmax in experiment [1] was determined as 76.8%.

For the compound `O=C1CC[C@@H](N2Cc3c(cc(F)c(C4CC5CCC(C4)N5Cc4ccc5ncsc5c4)c3F)C2=O)C(=O)N1` (stereo partly drawn) [Compound 127, (3R)-3-(5-(8-(benzo[d]thiazol-6-ylmethyl)-8-azabicyclo[3.2.1]octan-3-yl)-4,6-difluoro-1-oxoisoindolin-2-yl)piperidine-2,6-dione], the DC50 in experiment [1] was 5.94 nM; on Helios, at least 10000 nM. In addition, the Dmax in experiment [1] was 91.2%.

In the case of `O=C1CC[C@H](N2Cc3c(cc(F)c(C4CC5CCC(C4)N5Cc4ccc5ncsc5c4)c3F)C2=O)C(=O)N1` (stereo partly drawn) [Compound 126, (3S)-3-(5-(8-(benzo[d]thiazol-6-ylmethyl)-8-azabicyclo[3.2.1]octan-3-yl)-4,6-difluoro-1-oxoisoindolin-2-yl)piperidine-2,6-dione], in experiment [1], the DC50 is 0.427 nM and the Dmax is 92.2%. The DC50 at Helios is at least 10000 nM.

For `O=C1CCC(N2Cc3c(cc(F)c(C4CCN(Cc5ccc(C(F)F)cc5)CC4)c3F)C2=O)C(=O)N1` (stereo not drawn) [Compound 51, 3-(5-(1-(4-(difluoromethyl)benzyl)piperidin-4-yl)-4,6-difluoro-1-oxoisoindolin-2-yl)piperidine-2,6-dione], in experiment [1], the DC50 came to 0.097 nM and the Dmax was found to be 92%. On Helios, the DC50 is at least 10000 nM.

With `CN(C)CCCOc1ccc(CN2CCC(c3c(F)cc4c(c3F)CN(C3CCC(=O)NC3=O)C4=O)CC2)cc1` (stereo not drawn) [Compound 108, 3-(5-(1-(4-(3-(dimethylamino)propoxy)benzyl)piperidin-4-yl)-4,6-difluoro-1-oxoisoindolin-2-yl)piperidine-2,6-dione], in experiment [1], the DC50 was 3.66 nM and the Dmax came to 83.1%. For the same compound, the DC50 on Helios is at least 10000 nM.
